Earlier results as cited in US20130287898A1, “Trivalent Chromium and Boron Fortifying Composition, a Hydration Supplement, and Process for Preparing the Same” (priority 2010, published 2013).
Each block holds one compound with its values, some of them ahead of it.

Legend:
[1] = humans, 270 mg orally
[2] = in vivo
[3] = Expert group of vitamins & Minerals, UK - 2003

Compound: OB(O)O [boric acid]
discomfort / signs of toxicity [1]: no obvious signs of toxicity

absorption from the gastrointestinal tract [2]: well absorbed
excreted through urine [2]: about 90%
Compound: [B] [Boron]

Compound: [Cr] [Chromium]
Safe Upper level per day [3]: 10 mg
